Experimental data: publication PMC9658984, “Acetylation Enhances the Anticancer Activity and Oral Bioavailability of 5-Demethyltangeretin” (International Journal of Molecular Sciences, 2022)

What was measured:
[1] = tested on: PC-3 human prostate cancer cells; experiment: MTT cell viability assay; type: cell-based; conditions: PC-3 cells, 48 h
Description: PC-3 human prostate cancer cell line was obtained from the Bioresource Collection and Research Center (Hsinchu, Taiwan) and maintained in RPMI medium with 10% FBS and 1% penicillin-streptomycin (PS). The cells were incubated in a 5% CO2 humidified atmosphere at 37 °C. TAN, 5-DTAN, and 5-ATAN were dissolved in DMSO to prepare a 20 mM sample stock, and the final ratio of the DMSO in the treatment medium was 0.1%.
(§1) PC-3 cells were seeded in 96-well plates at a density of 2.5 × 10^3 cells/well and allowed to attach for 24 h. The medium was changed to serum-free RPMI supplemented with 0–20 μM TAN, 5-DTAN, or 5-ATAN, and then incubated for an additional 48 h. The cell viability was determined by the MTT assay and represented as a percentage of the growth of the DMSO-treated cells. FACScan flow cytometer (Becton Dickinson, San Jose, CA, USA) was used to analyze the cell cycle distribution as previously mentioned. Briefly, PC-3 cells treated with various concentrations of 5-DTAN or 5-ATAN for 48 h were trypsinized and gently fixed in 70% ice-cold ethanol and stored at −20 °C for at least 24 h. Then, the cells were washed with cold phosphate-buffered saline (PBS), followed by incubation with 40 μg/mL PI, 0.1 mg/mL RNase A, and 0.1% TritonX-100 in the dark for 30 min at room temperature. Subsequently, the cell cycle distribution of the PI-stained cells was analyzed by a FACScan flow cytometer, and the results were analyzed and calculated using ModFit LT Ver. 3.0 software. The proportion of the sub-G1 phase was quantitated and represented as the apoptotic ratio. Furthermore, a QIAamp DNA mini kit was used to extract DNA from the PC-3 cells treated with 5-DTAN or 5-ATAN for 48 h. Then, the extracted DNA was loaded on a 2% agarose gel containing HealthView^TM Nucleic Acid Stain (Genomics, New Taipei, Taiwan) for electrophoresis at 50 V. The gel was visualized under UV light, and the DNA fragmentation pattern was photographed.

[2] = tested on: PC-3 cells; experiment: DNA fragmentation (agarose gel electrophoresis); type: cell-based, human; conditions: 48 h
Description: as §1, with “Then, the extracted DNA was loaded on a 2% agarose gel containing HealthView^TM Nucleic Acid Stain (Genomics, New Taipei, Taiwan) for electrophoresis at 50 V. The gel was visualized under UV light, and the DNA fragmentation pattern was photographed.” left out

[3] = tested on: PC-3 cells; experiment: Wound healing cell migration assay; type: cell-based, human; conditions: 24 h
Description: The colony formation assay was conducted using a procedure modified from the previous report. PC-3 cells were seeded in 6-well plates at a density of 500 cells/well and allowed to attach for 24 h. Subsequently, the cells were treated with various concentrations of 5-ATAN. After 14 days of incubation, the colonies formed were observed by crystal violet staining and photographed. The wound healing assay was performed to assess the effect of 5-ATAN on the migration ability of PC-3 cells. Cells were seeded into a 6 cm dish at a cell density of 1 × 10^6 cells/well. After being cultured at 37 °C for 24 h, a 200 µL yellow pipette tip was used to scrape a gap in the middle of the dish. After washing twice with 1X PBS solution, the medium was replaced with fresh, serum-free medium containing different concentrations of 5-ATAN and incubated for 24 h. Then, the images were taken with an inverted phase contrast microscope at a magnification of 100×, and the Image J software was used for the measurement of the wound width. The percentage of cell migration (% of control) was calculated by measuring the movement of the cells into the scratch area after 24 h of treatment with DMSO or 5-ATAN.

[4] = tested on: Bax; experiment: Western blot protein expression, Bax; type: cell-based, human; conditions: PC-3 cells, 10 µM
Description: (§2) Western blot was performed to analyze the protein expression in the PC-3 Cells. The cells were exposed to indicated concentrations of 5-ATAN for various time periods at 37 °C. Then, they were washed with cold PBS and harvested, and a Western blot was conducted as previously described.

[5] = tested on: MMP-2; experiment: Western blot protein expression, MMP-2; type: cell-based, human; conditions: PC-3 cells, 5 µM, only at 48 h
Description: as §2

[6] = Tissue distribution of 5-DTAN after 7 days oral dosing; type: in vivo; conditions: 50 mg/kg i.g., 7 consecutive days, C57BL/6J mice; except kidney and lung
Description: Basically, esterase in the cytosol and plasma rapidly converts 5-ATAN absorbed into cells or into the blood circulation to 5-DTAN by deacetylation. The 5-DTAN in 5-DTAN-treated and 5-ATAN-treated samples can be determined by the HPLC-electrochemical detection (ECD) method. PC-3 cells were seeded in 10 cm dishes (1 × 10^6 cells) and allowed to attach for 24 h. Subsequently, cells were treated with various concentrations of 5-DTAN or 5-ATAN for 12 h, or with 15 µM of 5-DTAN or 5-ATAN for different time periods. Then, the cells were washed with cold PBS, collected, and centrifuged at 300× g for 5 min to remove the supernatant. […] The cytosolic levels of 5-DTAN in the resulting supernatant were analyzed by HPLC with an Ascentis RP-Amide column (L × I.D. 15 cm × 4.6 mm, 3 μm) (Merck KGaA, Darmstadt, Germany) as previously described. […] The samples were reconstituted in methanol and the levels of 5-DTAN were analyzed by HPLC-ECD. Pharmacokinetic parameters, including maximum concentration (Cmax), maximum time (Tmax), half-life (T1/2), and area under the curve (AUC), were calculated and obtained by the Thermo kinetica 5.0 software (Thermo Fisher Scientific, Waltham, MA, USA). […] The supernatant was obtained by centrifuging at 15,130× g for 15 min at 4 °C and then extracted with an equal volume of ethyl acetate and analyzed using the methods described above.

[7] = tested on: CL1-5 cell xenograft; parameters: method as in PMID 26569090; conditions: 20 mg/kg i.p., CL1-5 cell xenograft mice; cited from earlier work

Compound: COc1ccc(-c2cc(=O)c3c(OC(C)=O)c(OC)c(OC)c(OC)c3o2)cc1 [5-ATAN, 5-acetyloxy-6,7,8,4′-tetramethoxyflavone]
- IC50 ([1]; Homo sapiens, MTT): 5.1 µM
- IC50 fold lower than that of 5-DTAN [1]: 2.3 fold
- IC50 fold lower than that of TAN [1]: 3.4 fold
- Concentration at which DNA ladders were observed [2]: higher than 5 μM
- Suppression of migration compared to the control ([3]; 1.25 µM): 35.5%
- Suppression of migration compared to the control ([3]; 2.5 µM): 48.5%
- Suppression of migration compared to the control ([3]; 5 µM): 73.6%
- Expression of Bax [4]: slight increase
- Expression of MMP-2 [5]: obviously inhibited
- Levels of 5-DTAN in most tissues vs 5-DTAN-treated mice [6]: significantly higher
- Tumor growth inhibitory rate [7]: 43%
